Reference: patent US9185914B2, “Substituted 5-(cyclohex-2-en-1-yl)-penta-2,4-dienes and 5-(cyclohex-2-en-1-yl)-pent-2-en-4-ines as active agents against abiotic stress in plants” (BAYER INTELLECTUAL PROPERTY GMBH, priority 2011, dated 2015)

What was measured:
Assay type in all cases: in vivo
Conditions in all cases: mean of three results
Brassica napus = assay: Drought stress test, spray application to greenhouse plants (Brassica napus)
Method: (§1) Seeds of monocotyledonous and dicotyledonous crop plants were laid out in sandy loam in wood-fiber pots, covered with soil and cultivated in a greenhouse under good growth conditions. The test plants were treated at the early leaf stage (BBCH10-BBCH13). To ensure uniform water supply before commencement of stress, the potted plants were supplied with the maximum amount of water immediately beforehand by dam irrigation and, after application, transferred into plastic inserts in order to prevent subsequent, excessively rapid drying. The compounds according to the invention, formulated in the form of wettable powders (WP), wettable granules (WG), suspension concentrates (SC) or emulsion concentrates (EC), were sprayed onto the green parts of the plants as an aqueous suspension at an equivalent water application rate of 600 l/ha with addition of 0.2% wetting agent (agrotin). Substance application is followed immediately by stress treatment of the plants (cold or drought stress). For cold stress treatment, the plants were kept under the following controlled conditions: • “day”: 12 hours with illumination at 8° C. • “night”: 12 hours without illumination at 1° C.
(§2) Drought stress was induced by gradual drying out under the following conditions: • “day”: 14 hours with illumination at 26° C. • “night”: 10 hours without illumination at 18° C.
(§3) The duration of the respective stress phases was guided mainly by the state of the untreated (=treated with blank formulation but without test compound), stressed control plants and thus varied from crop to crop. It was ended (by re-irrigating or transfer to a greenhouse with good growth conditions) as soon as irreversible damage was observed on the untreated, stressed control plants. In the case of dicotyledonous crops, for example oilseed rape and soybeans, the duration of the drought stress phase varied between 3 and 5 days; in the case of monocotyledonous crops, for example wheat, barley or corn, it varied between 6 and 10 days. The duration of the cold stress phase varied between 12 and 14 days.
(§4) The end of the stress phase was followed by an approx. 5-7-day recovery phase, during which the plants were once again kept under good growth conditions in a greenhouse. In order to rule out any influence of the effects observed by any fungicidal action of the test compounds, it was additionally ensured that the tests proceeded without fungal infection and without infection pressure.
(§5) After the recovery phase had ended, the intensities of damage were rated visually in comparison to untreated, unstressed controls of the same age (in the case of drought stress) or the same growth stage (in the case of cold stress). The intensity of damage was first recorded as a percentage (100%=plants have died, 0%=like control plants). These values were then used to calculate the efficacy of the test compounds (=percentage reduction in the intensity of damage as a result of substance application) by the following formula:
(§6) [formula] EF: efficacy (%) DVus: damage value of the untreated, stressed control DVts: damage value of the plants treated with test compound
(§7) The tables below list mean values in each case from three results of the same test.
(§8) Efficacies of selected compounds of the formula (I) under drought stress: […]

Triticum aestivum = assay: Drought stress test, spray application to greenhouse plants (Triticum aestivum)
Method: as §1, §2, §3, §4, §5, §6, §7, §8

Zea mays = assay: Drought stress test, spray application to greenhouse plants (Zea mays)
Method: as §1, §2, §3, §4, §5, §6, §7, §8

SMILES | EF (BRSNS), efficacy = percentage reduction in the intensity of damage (Brassica napus; dosage 250 g/ha) | EF (TRZAS), efficacy = percentage reduction in the intensity of damage (Triticum aestivum; dosage 250 g/ha) | other results
CCC/C(C#CC1(O)C(C)=CC(=O)CC1(C)C)=C/C(=O)OCC (centres unmarked) [I.1-2, Ethyl (2Z)-3-[(1-hydroxy-2,6,6-trimethyl-4-oxocyclohex-2-en-1-yl)ethynyl]hex-2-enoate] | >5% | >5% | –
CCCC(=C/C(=O)OCC)/C=C/C1(O)C(C)=CC(=O)CC1(C)C (centres unmarked) [I.1-4, Ethyl (2Z)-3-[(E)-2-(1-hydroxy-2,6,6-trimethyl-4-oxocyclohex-2-en-1-yl)vinyl]hex-2-enoate] | >5% | >5% | –
CCOC(=O)C=C(C#CC1(O)C(C)=CC(=O)CC1(C)C)CC (centres unmarked) [I.1-8] | >5% | >5% | –
CCOC(=O)C=C(C=CC1(O)C(C)=CC(=O)CC1(C)C)CC (centres unmarked) [I.1-10] | >5% | >5% | EF (ZEAMX), efficacy = percentage reduction in the intensity of damage (Zea mays; dosage 250 g/ha): >5%
CCOC(=O)/C=C(\C#CC1(O)C(C)=CC(=O)CC1(C)C)C(F)(F)F (centres unmarked) [I.1-14, Ethyl (2E)-5-(1-hydroxy-2,6,6-trimethyl-4-oxocyclohex-2-en-1-yl)-3-(trifluoromethyl)pent-2-en-4-ynoate] | – | – | EF (ZEAMX), efficacy = percentage reduction in the intensity of damage (Zea mays; dosage 25 g/ha): >5%
CCOC(=O)/C=C(\C=C\C1(O)C(C)=CC(=O)CC1(C)C)C(F)(F)F (centres unmarked) [I.1-16, Ethyl (2E,4E)-5-(1-hydroxy-2,6,6-trimethyl-4-oxocyclohex-2-en-1-yl)-3-(trifluoromethyl)penta-2,4-dienoate] | >5% | >5% | –
CCC(C=CC1(O)C(C)=CC(=O)CC1(C)C)=CC(=O)O (centres unmarked) [I.1-20] | >5% | >5% | EF (ZEAMX), efficacy = percentage reduction in the intensity of damage (Zea mays; dosage 250 g/ha): >5%
CC1=CC(=O)CC(C)(C)C1(O)C#C/C(=C\C(=O)O)C(F)(F)F (centres unmarked) [I.1-23, (2E)-5-(1-Hydroxy-2,6,6-trimethyl-4-oxocyclohex-2-en-1-yl)-3-(trifluoromethyl)pent-2-en-4-ynoic acid] | >5% | >5% | EF (ZEAMX), efficacy = percentage reduction in the intensity of damage (Zea mays; dosage 250 g/ha): >5%
CC1=CC(=O)CC(C)(C)C1(O)C=CC(=CC(=O)O)C1CC1 (centres unmarked) [I.1-46] | >5% | >5% | EF (ZEAMX), efficacy = percentage reduction in the intensity of damage (Zea mays; dosage 250 g/ha): >5%
CCCCC(C#CC1(O)C(C)=CC(=O)CC1(C)C)=CC(=O)OCC (centres unmarked) [I.1-60] | >5% | >5% | –
CCCCCC(C=CC1(O)C(C)=CC(=O)CC1(C)C)=CC(=O)OCC (centres unmarked) [I.1-68] | >5% | – | –
CCCCCCC(C#CC1(O)C(C)=CC(=O)CC1(C)C)=CC(=O)OCC (centres unmarked) [I.1-72] | >5% | – | –
CCCCCCC(C=CC1(O)C(C)=CC(=O)CC1(C)C)=CC(=O)OCC (centres unmarked) [I.1-74] | >5% | – | –
CCOC(=O)C=C(C#CC1(O)C(C)=CC(=O)CC1(C)C)C(C)C (centres unmarked) [I.1-84] | – | – | EF (ZEAMX), efficacy = percentage reduction in the intensity of damage (Zea mays; dosage 250 g/ha): >5%
CCOC(=O)C=C(C=CC1(O)C(C)=CC(=O)CC1(C)C)C(C)C (centres unmarked) [I.1-86] | – | >5% | –
CCOC(=O)C=C(C=CC1(O)C(C)=CC(=O)CC1(C)C)C(C)(C)C (centres unmarked) [I.1-92] | – | >5% | EF (ZEAMX), efficacy = percentage reduction in the intensity of damage (Zea mays; dosage 250 g/ha): >5%
CCOC(=O)C=C(C#CC1(O)C(C)=CC(=O)CC1(C)C)C1CC1 (centres unmarked) [I.1-114] | >5% | >5% | –
CCOC(=O)C=C(C=CC1(O)C(C)=CC(=O)CC1(C)C)C1CC1 (centres unmarked) [I.1-116] | >5% | >5% | –
CCOC(=O)C=C(C#CC1(O)C(C)=CC(=O)CC1(C)C)C1CCCC1 (centres unmarked) [I.1-122] | – | – | EF (TRZAS), efficacy = percentage reduction in the intensity of damage (Triticum aestivum; dosage 25 g/ha): >5%
CCOC(=O)C=C(C=CC1(O)C(C)=CC(=O)CC1(C)C)C1CCCC1 (centres unmarked) [I.1-124] | – | >5% | –
CCC(C#CC1(O)C(C)=CC(=O)CC1(C)C)=CC(=O)OC (centres unmarked) [I.1-142] | >5% | >5% | EF (ZEAMX), efficacy = percentage reduction in the intensity of damage (Zea mays; dosage 250 g/ha): >5%
CCC(C=CC1(O)C(C)=CC(=O)CC1(C)C)=CC(=O)OC (centres unmarked) [I.1-144] | – | – | EF (BRSNS), efficacy = percentage reduction in the intensity of damage (Brassica napus; dosage 25 g/ha): >5%; EF (TRZAS), efficacy = percentage reduction in the intensity of damage (Triticum aestivum; dosage 25 g/ha): >5%
CCC(C#CC1(O)C(C)=CC(=O)CC1(C)C)=CC(=O)NC(C)C (centres unmarked) [I.2-14] | – | – | EF (ZEAMX), efficacy = percentage reduction in the intensity of damage (Zea mays; dosage 25 g/ha): >5%
CCC(C#CC1(O)C(C)=CC(=O)CC1(C)C)=CC(=O)NC1CC1 (centres unmarked) [I.2-18] | >5% | – | EF (ZEAMX), efficacy = percentage reduction in the intensity of damage (Zea mays; dosage 25 g/ha): >5%
